According to US6479460B1, “Synthetic peptides and pseudopeptides having osteogenic activity and pharmaceutical compositions containing the same” (Yissum Research Development Company of the Hebrew …, priority 1996, dated 2002):
Primed or numbered codes have the meaning given here. Where no end group is shown, it is not given here. [ ]: non-standard residue; d: D form. The star is where a group is joined. Desaminotyrosyl = O=C(CCc1ccc(O)cc1)*; Hydrocinnamoyl = O=C(CCc1ccccc1)*; NMeF = CN[C@@H](Cc1ccccc1)C(=O)O; ol″ = C-terminal alcohol; Propionyl = CCC(=O)*; GABA = NCCCC(=O)O; βAla = NCCC(=O)O; Sar = CNCC(=O)O

How the values were obtained:
[1] = test system: osteoblastic MC3T3 E1 cells; assay: Proliferation assay, osteoblastic MC3T3 E1 cells; assay type: cell-based; settings: analog concentration 10^−13M; mean cell number relative to positive control OGP(1-14) = 1.00
From the text: (§1) Some of the analogs were subjected to a dose response analysis.

[2] = test system: fibroblastic NIH 3T3 cells; assay: Proliferation assay, fibroblastic NIH 3T3 cells; assay type: cell-based; settings: analog concentration 10^−11M; mean cell number relative to positive control OGP(1-14) = 1.00
From the text: as §1

Substance | Relative in vitro potency (95% confidence limit) MC3T3 E1 cells [1] | Relative in vitro potency (95% confidence limit) NIH 3T3 cells [2]
(desamino[Phe^10]2OGP(10-14) | 0.18 | 0.24
Nα-Ac—OGP(11-14) (Ac-GFGG) | 0.21 | 0.22
OGP(11-14)-ol (GFGG-{ol″}) | 0.24 | 0.38
[Ala^10]OGP(10-14) (AGFGG) | 0.29 | 0.17
[Ala^11]OGP(10-14) (YAFGG) | 0.18 | 0.31
[Ala^13]OGP(11-14) (GFAG) | 0.22 | 0.10
[Ala^14]OGP(11-14) (GFGA) | 0.17 | 0.10
[D-Ala^10]OGP(10-14) | 0.12 | 0.16
[D-Ala^13]OGP(10-14) | 0.14 | 0.26
[Phe^10]OGP(10-14) (FGFGG) | 0.41 | 0.32
[β-Ala^11]OGP(10-14) (Y[βAla]FGG) | 0.29 | 0.17
c(Gly-Tyr-Gly-Phe-Gly-Asp)-OH (GYGFGD-OH; lactam (positions not given here); also: cyclic, closure site not given here) | 0.15 | 0.16
c(Gly-Tyr-Gly-Phe-Gly-Gly) (GYGFGG; cyclic) | 0.26 | 0.20
c(Tyr-Cly-Phe-Gly) (YGFG; cyclic) | 0.35 | 0.43
c(Tyr-Gly-Phe-Gly-Asp)-OH (YGFGD-OH; lactam (positions not given here); also: cyclic, closure site not given here) | 0.14 | 0.11
c(β-Ala-Tyr-Gly-Phe-Gly-Gly) (cyclo([βAla]YGFGG); SMILES O=C1CNC(=O)CNC(=O)[C@H](Cc2ccccc2)NC(=O)CNC(=O)[C@H](Cc2ccc(O)cc2)NC(=O)CCN1) | 0.36 | 0.37
c(γ-Abu-Tyr-Gly-Phe-Gly-Gly) (cyclo([GABA]YGFGG); SMILES O=C1CNC(=O)CNC(=O)[C@H](Cc2ccccc2)NC(=O)CNC(=O)[C@H](Cc2ccc(O)cc2)NC(=O)CCCN1) | 0.20 | 0.22
c(δ-Ala-Tyr-Gly-Phe-Gly-Asp)-OH | 0.20 | 0.11
c(δ-Ala-Tyr-Gly-Phe-Gly-Gly) | 0.14 | 0.18

Substance | Relative in vitro potency (95% confidence limit) MC3T3 E1 cells [1] | Relative in vitro potency (95% confidence limit) NIH 3T3 cells [2]
des[Gly^11]OGP(10-14) | 0.21 | 0.17
desamino Tyr-CH2-Gly-Phe-Gly-Gly ([Desaminotyrosyl]GFGG; also: reduced amide bond Tyr-CH2-Gly) [desamino[Tyr^10ψ(CH2NH)Gly^11]OGP(10-14)] | 0.81 | 0.79
desamino Tyr-Gly-N(CH3)-CH(CH2C6H5)-C(O)-Gly-Gly ([Desaminotyrosyl]G[NMeF]GG) [desamino[Tyr^10,N(Me)-Phe^12]OGP(10-14)] | 0.52 | 0.67
desamino Tyr-Gly-NH-CH(CH2C6H5)-CH2-Gly-Gly ([Desaminotyrosyl]GFGG; also: reduced amide bond Phe-Gly (NH-CH(CH2C6H5)-CH2-NH)) | 0.70 | 0.88
desamino Tyr-Gly-Phe-NH-CH2-CH2-CH2-CH2-C(O)-OH | 0.78 | 0.188
desamino Tyr-Gly-Phe-NH-CH2-CH2-Gly (YGFGG; not fully specified; desamino Tyr10; reduced CH2NH bond Gly13-Gly14) | 0.78 | 0.80
desamino Tyr-NH-CH2-CH2-Phe-Gly-Gly ([Desaminotyrosyl]GFGG; also: Gly2-Phe3 bond reduced, ψ(CH2NH)) | 0.61 | 0.67
desamino[Ala^10]OGP(10-14) ([Propionyl]GFGG) | 0.28 | 0.09
desamino[Phe^10]OGP(10-14) ([Hydrocinnamoyl]GFGG) | 0.35 | 0.48
desamino[Tyr^10,Ala^12]OGP(10-14) [desamino[Tyr^10,Ala^12]OGP(10-14) (SEQ ID NO: 20)] | 0.41 | 0.43
desamino[Tyr^10,Ala^12]OGP(10-14) [desamino[Tyr^10,Ala^12]OGP(10-14) (SEQ ID NO: 21)] ([Desaminotyrosyl]GAGG) | 0.21 | 0.16
desamino[Tyr^10,Ala^13]OGP(10-14) ([Desaminotyrosyl]GFAG) | 0.27 | 0.15
desamino[Tyr^10,Ala^14]OGP(10-14) ([Desaminotyrosyl]GFGA) | 0.19 | 0.16
desamino[Tyr^10,D-Ala^11]OGP(10-14) | 0.21 | 0.19
desamino[Tyr^10,D-Ala^12]OGP(10-14) | 0.30 | 0.02
desamino[Tyr^10,D-Ala^13]OGP(10-14) | 0.28 | 0.23
desamino[Tyr^10,D-Ala^14]OGP(10-14) | 0.41 | 0.32
desamino[Tyr^10,Sar^11]OGP(10-14) [desamino[Tyr^10,Sar^11]OGP(10-14) (SEQ ID NO: 31)] ([Desaminotyrosyl][Sar]FGG) | 0.31 | 0.39
